Experimental data from publication PMC7891399 (Journal of Clinical Pharmacology, 2020).
Where two headings read alike, the source gives them in different places. Marks after values point to notes of the source that are not given here.

Tests used:
[1] = type: in vivo, women; settings: for AUC(0-t): female, human, plasma; for AUC0–24h Ratio Third Trimester/Postpartum GMR (90%CI) / Ctrough Ratio Third Trimester/Postpartum GMR (90%CI): paired data only
[2] = type: in vivo, women
[3] = Combined PANNA and iTAP comparison of pregnancy effect on TFV exposure; type: in vivo; settings: all groups of women (HIV with r/PI, HIV without r/PI, HBV monoinfection)
[4] = healthy subjects, fed state; ref registration package; cited from earlier work
[5] = women with HBV, TDF monotherapy, paired data only

C[C@H](Cn1cnc2c(N)ncnc21)OCP(=O)(O)O [TFV, tenofovir]
AUC(0-t) ([1]; oral): 1.84 µg·h/mL | AUC(0-t) ([1]; oral, AUC0–24h Postpartum GM (95%CI), women with HIV, all patients (n = 59), postpartum): 2.84 µg·h/mL | AUC(0-t) ([1]; po): 1.86 µg·h/mL | Ctrough Postpartum GM (95%CI) ([1]; women with HIV on non-r/PI (n = 27), postpartum): 0.056 (0.050–0.064) µg/mL | Ctrough Third Trimester GM (95%CI) ([1]; women with HIV on non-r/PI (n = 27)): 0.038 (0.033–0.043) µg/mL | AUC0–24h Ratio Third Trimester/Postpartum GMR (90%CI) ([1]; women with HIV on non-r/PI): 0.74 (0.68–0.82) | Ctrough Ratio Third Trimester/Postpartum GMR (90%CI) ([1]; women with HIV on non-r/PI): 0.68 (0.62–0.75) | Ctrough decrease by pregnancy, on average ([1]; women with HIV on non-r/PI-based regimens): 32% | AUC0–24h lower during the third trimester compared to 1 month postpartum ([1]; women with HIV on non-r/PI-based regimens, intraindividual): 26% | Ctrough Postpartum GM (95%CI) ([1]; women with HIV on r/PI (n = 32), postpartum): 0.063 (0.053–0.075) µg/mL | Ctrough Third Trimester GM (95%CI) ([1]; women with HIV on r/PI (n = 32)): 0.048 (0.043–0.054) ^b , ^c µg/mL | AUC0–24h Ratio Third Trimester/Postpartum GMR (90%CI) ([1]; women with HIV on r/PI): 0.76 (0.69–0.83) | Ctrough Ratio Third Trimester/Postpartum GMR (90%CI) ([1]; women with HIV on r/PI): 0.81 (0.69–0.94) | Ctrough decrease by pregnancy, on average ([1]; women with HIV on r/PI-based regimens): 19% | Ctrough Postpartum GM (95%CI) ([1]; women with HIV, all patients (n = 59), postpartum): 0.059 (0.053–0.066) µg/mL | Ctrough Third Trimester GM (95%CI) ([1]; women with HIV, all patients (n = 59)): 0.043 (0.039–0.047) µg/mL | AUC0–24h Ratio Third Trimester/Postpartum GMR (90%CI) ([1]; women with HIV, all patients): 0.75 (0.70–0.80) | Ctrough Ratio Third Trimester/Postpartum GMR (90%CI) ([1]; women with HIV, all patients): 0.74 (0.67–0.81) | AUC(0-t) ([2]; female, human, plasma, po): 2.35 µg·h/mL | Ctrough decrease by pregnancy, on average ([2]; women with HBV): 31% | AUC0–24h lower during the third trimester compared to 1 month postpartum ([2]; women with HBV receiving TDF monotherapy, intraindividual): 21% | Ctrough Postpartum GM (95%CI) ([2]; women with HBV, TDF monotherapy (n = 137), 1 month postpartum): 0.058 (0.055–0.061) µg/mL | Ctrough Third Trimester GM (95%CI) ([2]; women with HBV, TDF monotherapy (n = 137), third trimester (32 weeks)): 0.039 (0.038–0.042) µg/mL | AUC0–24h Ratio Third Trimester/Postpartum GMR (90%CI) [2, 5]: 0.79 (0.78–0.80) | Ctrough Ratio Third Trimester/Postpartum GMR (90%CI) [2, 5]: 0.69 (0.68–0.71) | TFV exposure decrease during the third trimester of pregnancy [3]: approximately 25% | mean AUC0–24h [4]: 2.46 ± 0.83 µg·h/mL
